“And” between values parts separate entries of the source, which are not always exact repeats. Equal entries are not always repeated.
Legend:
[1] = test system: H460 human lung cancer xenografts; test: Growth delay and survival of H460 xenografts, PR-104, docetaxel and schedules thereof; assay type: in vivo, CD-1 nude mice
Method: Specific pathogen-free homozygous nu/nu (CD-1) nu/nu [NIH-III] (Charles River Laboratories, Wilmington, Mass.) were provided by the Animal Resources Unit (University of Auckland) at 7 to 9 weeks of age. Mice were housed in groups of 4-7 in a temperature-controlled room (22±2° C.) with a 12-hour light/dark cycle and were fed ad libitum water and a standard rodent diet (Harlan Teklad diet 2018i). All animals were uniquely identifiable by ear tag number. All animal protocols were approved by the Animal Ethics Committee of the University of Auckland (AEC approval C337).
A single cell suspension was prepared by trypsinisation (1× Trypsin/EDTA) from spinner culture, counted, and suspended in ∝MEM to give required cell concentration, as listed below. Mice were inoculated (100 μL) at a single subcutaneous site (right flank) using a 1 ml syringe with a 26 gauge needle.
Seven days post-inoculation, tumors were measured three times per week until they reached the treatment size (mean diameter 5.8-8.2 mm; average 7.0 mm). Mean tumor diameter was averaged from the longest diameter (length) multiplied by the perpendicular measurement (width). Tumor diameters were estimated when mean diameter was below 5 mm, and measured with electronic callipers when ≧5 mm.
Tumor volume was calculated using the formula:
where L=length and w=width in mm of the carcinoma.
Excess compound was discarded.
Tumor bearing mice were assigned randomly to treatment groups when tumor diameter reached treatment size. Animals were rejected if xenografts show evidence of: (i) attachment to underlying muscle (due to risk of local invasion), (ii) signs of ulceration, or (iii) indolent tumor growth. Drug administration begins on the day of assignment. In general, 0.7-0.8 of the inoculated population is assigned to the experiment. Drug administration was undertaken as outlined above.
During and after treatment, tumor size and body weights were measured regularly. Animals were culled if (i) the average diameter of the tumor exceeds 15 mm (survival end-point), (ii) body weight loss exceeds 15% of pre-treatment value, (iii) there is evidence of prolonged or excessive morbidity, or (iv) tumor ulceration occurred. Each experiment was terminated at day 120 after treatment initiation.
Kaplan-Meier plots were constructed and median survival was calculated (TTE50). The statistical significance of any differences in overall survival between treatment groups and control was analysed by Log Rank P statistical test. The log-rank test was calculated using XLStat Life (Kovach Computing Services Ltd). The statistic significance in overall survival between each treatment group and control was determined by testing the null hypothesis that the survival curves are identical in the two populations.
The time for individual tumors to increase in volume by 4 fold relative to treatment day-1 (relative tumor volume×4−RTV^4) was recorded. The median RTV^4 is calculated for each group and the difference in RTV^4 between control and treatment groups is described as the Tumor Growth Delay (TGD) in days. RTV^4 values notmalise for any bias in tumor treatment volume on day-1. The RTV^4 of each treatment group is tested for statistical difference from control group by unpaired t-test and Mann Whitney U test (means and medians, respectively).
In circumstances where long-term controls (LTCs) occur, an RTV^4 value equal to the total duration of the experiment is assigned for the purposes of statistical analysis (usually 120 days). Where one or more LTC is present the median RTV^4 of each treatment group is tested for statistical difference from control group by Mann Whitney U test only. The statistical analysis was conducted at a p level of 0.05 (two-tailed). SigmaStat v3.10 was used for the statistical analysis of RTV^4 values. SigmaPlot v9 was used for all graph plots.
Weight loss nadirs (time independent maxima) were recorded for each treatment group.

[2] = test system: SiHa human cervical cancer xenograft; test: Growth delay and survival of SiHa xenograft, PR-104 and docetaxel; assay type: in vivo, Rag-1^null mice
From the text: Analysis: End-points will be expressed as TTE50, Median RTV^4 and plotted in Kaplan-Meier Plots and analysed by Log Rank P statistical test. Weight loss nadir will be compared between schedules.

[3] = test system: 22RV1 androgen-resistant human prostate cancer xenograft; test: Growth delay and survival of 22RV1 xenograft, PR-104 and docetaxel; assay type: in vivo, CD-1 nude mice
Method: (§1) End-point: After treatment, tumor size and body weights were measured regularly and mice were culled either when the average diameter of the tumor reached 15 mm (end-point), the tumor ulcerated or when the body weight change reached −15%. Experiment was ended and all remaining mice culled 120 days after treatment.
(§2) Analysis: End-points will be expressed as TTE50, Median RTV^4 and plotted in Kaplan-Meier Plots and analysed by Log Rank P statistical test.

[4] = test system: A2780 human ovarian cancer xenografts; test: Growth delay and survival of A2780 xenografts, PR-104 and docetaxel; assay type: in vivo, CD-1 nude mice; conditions: A2780 xenograft
Method: as §1, §2

[5] = H460 xenograft, PR-104 652 mg/kg, docetaxel 73 mg/kg, q2w×2
[6] = Rag-1 mice, PR-104 652 mg/kg, docetaxel 73 mg/kg, q2w×2
[7] = 22RV1 xenograft, PR-104 652 mg/kg, docetaxel 73 mg/kg, q2w×2
[8] = PR-104 652 mg/kg, docetaxel 73 mg/kg, q2w×2

## CC(=O)O[C@@]12CO[C@@H]1C[C@H](O)[C@@]1(C)C(=O)[C@H](O)C3=C(C)[C@@H](OC(=O)[C@H](O)[C@@H](NC(=O)OC(C)(C)C)c4ccccc4)C[C@@](O)([C@@H](OC(=O)c4ccccc4)[C@H]21)C3(C)C [Docetaxel, (2R,3S)-N-carboxy-3-phenylisoserine, N-tert-butyl ester, 13-ester with 5β-20-epoxy-1,2α,4,7β,10β,13α-hexahydroxytax-11-en-9-one 4-acetate 2-benzoate, trihydrate, reference compound]
[1]; H460 xenograft, CD-1 nude mice, mean body weight loss nadir, PR-104 652 mg/kg, docetaxel 73 mg/kg, i.p., q2w×2, trihydrate
  Weight Loss Nadir (%): −4.2 ± 1.0%
[1]; H460 xenograft, female CD-1 nude mice, total dose PR-104 652 mg/kg, docetaxel 73 mg/kg, i.p., q2w×2
  Unscheduled deaths: 0
[1]; H460 xenograft, 120 day experiment, PR-104 652 mg/kg, docetaxel 73 mg/kg, q2w×2
  LTC (long term control, failed to reach end-point within duration of experiment): 0
[1]; [5]
  Median RTV^4 (median time for tumor volume to increase 4-fold): 8 days
  TGD (tumor growth delay; relative gain in median RTV^4 versus control): 0%
[1]; H460 xenograft, end-point >15 mm mean diameter, PR-104 652 mg/kg, docetaxel 73 mg/kg, q2w×2
  TTE50 (median time for tumor end-point to occur from day of treatment): 14 days
[1]; H460 xenograft, versus control (11 days), PR-104 652 mg/kg, docetaxel 73 mg/kg, q2w×2
  Gain TTE50 (improvement in median survival): 3 days
[1]; tumor growth delay and survival end-points
  activity against H460 xenograft (in words): refractory
[2]; Rag-1 mice
  activity against SiHa xenograft (in words): displayed activity
[2]; Rag-1 mice, 120 day experiment
  LTC (long term control): 0
[2]; Rag-1 mice, PR-104 652 mg/kg, docetaxel 73 mg/kg, i.p., q2w×2, trihydrate
  Weight Loss Nadir (%): −7.0±0.8%
[2]; [6]
  Median RTV^4: 44.5 days
  TTE50 (median time for tumor end-point to occur): 54 days
[2]; Rag-1 mice, PR-104 652 mg/kg, docetaxel 73 mg/kg, q2w×2, trihydrate
  TGD (relative gain in median RTV^4 versus control): 271% and 270.8%
[2]; Rag-1 mice, day of unscheduled death, trihydrate
  Day of death: 44 and 66
[2]; Rag-1 mice, versus control
  improvement in tumor growth delay: 32.5 days
[2]; Rag-1 mice, versus control (17 days)
  Gain TTE50 (improvement in median survival): 37 days
[2]; female Rag-1 mice, total dose PR-104 652 mg/kg, docetaxel 73 mg/kg, i.p., q2w×2
  Unscheduled deaths: 2
[3]; 22RV1 prostate xenograft model
  activity against 22RV1 xenograft (in words): moderately active
[3]; 22RV1 xenograft, CD-1 nude mice, PR-104 652 mg/kg, docetaxel 73 mg/kg, i.p., q2w×2, trihydrate
  Weight Loss Nadir (%): −3.5±0.8%
[3]; 22RV1 xenograft, 120 day experiment
  LTC (long term control): 0
[3]; [7]
  Median RTV^4: 20 days
  TGD (relative gain in median RTV^4 versus control; TGI in text): 122%
  TTE50: 24 days
[3]; 22RV1 xenograft, versus control
  median tumor growth delay: 11 days
[3]; 22RV1 xenograft, versus control (9.5 days)
  Gain TTE50 (improvement in median survival): 14.5 days
[4]; CD-1 nude mice, PR-104 652 mg/kg, docetaxel 73 mg/kg, i.p., q2w×2, trihydrate
  Weight Loss Nadir (%): −8.7±1.5%
[4]; 120 day experiment
  LTC (long term control): 0
[4]; [8]
  Median RTV^4: 12 days
  TTE50: 14 days
[4]; PR-104 652 mg/kg, docetaxel 73 mg/kg, q2w×2, trihydrate
  TGD (relative gain in median RTV^4 versus control): 167% and 166.7%
[4]; versus control
  improvement in median tumor growth delay: 7.5 days
[4]; versus control (6 days)
  Gain TTE50 (improvement in median survival): 8 days

Reference: patent publication US20080064665A1, “Combination approaches to cancer treatment” (priority 2006, published 2008)
